Results: patent US12070472B2, “Treatment of drug resistant proliferative diseases with telomerase mediated telomere altering compounds” (The Board of Regents of the University of Texas System, priority 2016, dated 2024)

Tests used:
HCC2429 = test: GI 50 determination, HCC2429; assay type: cell-based; conditions: Homo sapiens
Procedure: (§1) Cells of each type listed in Table 2 were seeded in chamber slides.

H2087 = test: GI 50 determination, H2087; assay type: cell-based; conditions: Homo sapiens, NCI-H2087
Procedure: as §1

H2085 = test: NSCLC panel sensitivity to 6-thio-dG, H2085; assay type: cell-based; conditions: Homo sapiens
Procedure: A panel of NSCLC cell lines was tested for sensitivity to 6-thio-dG by performing a cell count after 1 week treatment. Briefly, cells were treated with 3 μM 6-thio-dG every three days for 1 week. Viable cells were counted at the end of treatment. Each 6-thiodG treated cell line was normalized to its DMSO treated control. The results of the cell count are depicted in FIG. 12, with the various cell lines arranged in descending resistance to 6-thio-dG from left to right. […] The IC50 values for the whole panel of tested cells are depicted in FIG. 13. The IC50 values for tested cells are depicted as a column scatter graph in FIG. 14.

A549 = test: GI 50 determination, A549; assay type: cell-based; conditions: Homo sapiens
Procedure: as §1

[1] = system: A549 human lung cancer cells; test: Tumor growth in xenograft animal model with A549 cells; assay type: in vivo, mice; conditions: 2.5 mg/kg every day
Procedure: Doses of 2.5 mg/kg of 6-thio-dG and 2.5 mg/kg of 6-thio-G were injected every day into mice after tumor implantation and providing time for tumor initiation. DMSO injections were used for the control. The volume of the tumor was measured.

HCC4017 = test: GI 50 determination, HCC4017; assay type: cell-based; conditions: Homo sapiens
Procedure: as §1

HCT116 cells = system: HCT116 cells
Procedure: For long-term cellular experiments, HCT116 (1,000 cells/cm^2) and BJ (10,000 cells/cm^2) cells were fed with 6-thio-dG (1, 3, 10 μM) containing medium every three days. The cells were counted and replated every week for 10-16 weeks. Additionally, HCT116 cells (1,000 cells/cm^2) were fed with 6-thio-G (1, 3, 10 μM) every three days and each week cells were counted, collected for TRF (Telomere Restriction Fragment) analysis and replated. HCT116 cells, following treatment with 10 μM 6-thio-dG for 12 weeks, were then treated with a combination of 10 μM 6-thio-dG and 3 μM GRN163L for 2-4 weeks.

HCT116 = test: GI 50 determination, HCT116; assay type: cell-based; conditions: Homo sapiens, HCT-116
Procedure: as §1

Q: `Nc1nc2c(ncn2[C@H]2C[C@H](O)[C@@H](CO)O2)c(=S)[nH]1` [6-thio-dG, 6-thio-2′-deoxyguanosine] was tested. Which GI50 (HCC2429) did it give?
A: 600 nM

Q: And the GI50 (H2087)?
A: 900 nM

Q: What about the IC50 (H2085) of the same compound?
A: 3000 to 7000 nM

Q: And the GI50 (A549)?
A: 2100 nM

Q: What about the “histology of residual tumors” value [1] of the same compound?
A: mostly fibrotic and often associated with apoptotic and inflammatory cells

Q: What about the “rate of tumor growth (tumor volume)” value ([1]; compared to control and 6-thio-G) of the same compound?
A: rate of tumor growth was less

Q: And the GI50 (HCC4017)?
A: 900 nM

Q: And the “telomere shortening (TRF)” value (HCT116 cells; 1 μM or 10 μM every 3 days, 12 weeks)?
A: dramatic telomere shortening

Q: What about the “telomere length on continued treatment (TRF)” value (HCT116 cells; 10 μM 6-thio-dG for 12 weeks, continued to 16 weeks) of the same compound?
A: exhibited stablized telomeres

Q: What about the “acquisition of resistance (cell growth)” value (HCT116 cells; 1, 3, 10 μM, weekly over 10 weeks) of the same compound?
A: begin to acquire resistance to the treatment by the third week

Q: What about the “telomere length after drug removal (TRF)” value (HCT116 cells; 12 weeks 6-thio-dG, then normal medium without drug 2-4 weeks) of the same compound?
A: remained about the same as after 12 week of 6-thio-dG treatment

Q: And the GI50 (HCT116)?
A: 1000 nM
